# Reference: the supplement of paper PMC4976141
# System: PC9
# Assay: cell count fold change with erlotinib, miRNA mimic vs non-targeting control (log2 ratio); higher = more drug-tolerant survivors than NTC
# Conditions: erlotinib 1 µM; 72 h drug + 72 h drug-free recovery; perturbation: miRNA mimic
row,Sequence,cell count fold change with erlotinib
1,GUGAGGACUCGGGAGGUGG,-3.05
2,GUGAGGGCAUGCAGGCCUGGAUGGGG,-0.605
3,GUGAGUCUCUAAGAAAAGAGGA,-1.43
4,GUGCAUUGCUGUUGCAUUGC,-2.3
5,GUGGCUGCACUCACUUCCUUC,-0.272
6,GUGGGUACGGCCCAGUGGGGGG,0.186
7,GUGUGCGGAAAUGCUUCUGCUA,-2.43
8,GUUGGAGGAUGAAAGUACGGAGUGAU,-2.24
9,UAAAGAGCCCUGUGGAGACA,-1.03
10,UAACUGGUUGAACAACUGAACC,-0.919
11,UAAGGCACGCGGUGAAUGCC,0.453
12,UAAGGUGCAUCUAGUGCAGAUAG,-4.51
13,UAAGGUGCAUCUAGUGCAGUUAG,-4.47
14,UAAGUGCUUCCAUGCUU,-0.506
15,UAAGUGCUUCCAUGUUUCAGUGG,-0.141
16,UAAGUGCUUCCAUGUUUGAGUGU,-0.491
17,UAAGUGCUUCCAUGUUUUGGUGA,-1.35
18,UACCCAGAGCAUGCAGUGUGAA,-2.53
19,UACGUCAUCGUUGUCAUCGUCA,-0.419
20,UACUCAGGAGAGUGGCAAUCAC,-0.848
21,UACUUGGAAAGGCAUCAGUUG,-0.495
22,UAGAGUUACACCCUGGGAGUUA,-3.48

row,Sequence,cell count fold change with erlotinib
1,UAGAUAAAAUAUUGGUACCUG,-1.41
2,UAGCAGCACAGAAAUAUUGGC,-1.13
3,UAGCAGCACGUAAAUAUUGGCG,-2.26
4,UAGCAGCGGGAACAGUUCUGCAG,-3.68
5,UAGCUUAUCAGACUGAUGUUGA,-2.58
6,UAGGACACAUGGUCUACUUCU,-1.02
7,UAGGCAGUGUCAUUAGCUGAUUG,-1.83
8,UAGGUUAUCCGUGUUGCCUUCG,-2.37
9,UAGUACCAGUACCUUGUGUUCA,-4.15
10,UAGUGCAAUAUUGCUUAUAGGGU,-3.19
11,UAUGGCUUUUUAUUCCUAUGUGA,-1.4
12,UAUGUGCCUUUGGACUACAUCG,-3.93
13,UCACAAUGCUGACACUCAAACUGCUGAC,-1.47
14,UCACUCCUCUCCUCCCGUCUU,-4.11
15,UCCAGCAUCAGUGAUUUUGUUG,-2.81
16,UCCCUGUCCUCCAGGAGCUCACG,-1.84
17,UCCCUGUUCGGGCGCCA,-3.09
18,UCCUGUACUGAGCUGCCCCGAG,-0.848
19,UCGAGGAGCUCACAGUCUAGU,-0.737
20,UCGGAUCCGUCUGAGCUUGGCU,0.402
21,UCUCUGGGCCUGUGUCUUAGGC,0.808
22,UGACAACUAUGGAUGAGCUCU,-1.88

row,Sequence,cell count fold change with erlotinib
1,UGAGAACCACGUCUGCUCUGAG,-1.74
2,UGAGACCUCUGGGUUCUGAGCU,-0.719
3,UGAGAUGAAGCACUGUAGCUC,-1.52
4,UGAGCCCCUGUGCCGCCCCCAG,-1.44
5,UGAGCCCUGUCCUCCCGCAG,-3.68
6,UGAGCGCCUCGACGACAGAGCCG,-1.23
7,UGAGGGGCAGAGAGCGAGACUUU,-0.476
8,UGAGUGCCGGUGCCUGCCCUG,-2.45
9,UGCCUGUCUACACUUGCUGUGC,-1.78
10,UGCGGGGCUAGGGCUAACAGCA,0.647
11,UGCUUCCUUUCAGAGGGU,-3.13
12,UGGAAGACUAGUGAUUUUGUUGU,-2.71
13,UGGAAUGUAAGGAAGUGUGUGG,-0.89
14,UGGAGAGAAAGGCAGUUCCUGA,-1.98
15,UGGAGGAGAAGGAAGGUGAUG,0.943
16,UGGAUUUCUUUGUGAAUCACCA,-4.07
17,UGGGCGUAUCUGUAUGCUA,-0.274
18,UGGGUCUUUGCGGGCGAGAUGA,-0.809
19,UGGUGCGGAGAGGGCCCACAGUG,-1.34
20,UGGUUGUAGUCCGUGCGAGAAUA,1.81
21,UGGUUUACCGUCCCACAUACAU,0.24
22,UGUAAACAUCCUACACUCUCAGC,0.35

row,Sequence,cell count fold change with erlotinib
1,UGUAGUGUUUCCUACUUUAUGGA,-4.91
2,UGUCUUGCAGGCCGUCAUGCA,-4.12
3,UGUGCGCAGGGAGACCUCUCCC,-1.77
4,UGUUUUGAUAACAGUAAUGU,-1.27
5,UUACAGUUGUUCAACCAGUUACU,-2.68
6,UUAUGGUUUGCCUGGGACUGAG,-0.886
7,UUCAACGGGUAUUUAUUGAGCA,-3.32
8,UUCCUAUGCAUAUACUUCUUUG,-1.18
9,UUCUCAAGGAGGUGUCGUUUAU,-1.83
10,UUCUCCAAAAGAAAGCACUUUCUG,-1.65
11,UUCUCGAGGAAAGAAGCACUUUC,-1.6
12,UUGCAGCUGCCUGGGAGUGACUUC,-2.6
13,UUGCAUAUGUAGGAUGUCCCAU,-1.06
14,UUGGGAUCAUUUUGCAUCCAUA,0.519
15,UUGUACAUGGUAGGCUUUCAUU,-3.02
16,UUGUGCUUGAUCUAACCAUGU,-1.88
17,UUGUGUCAAUAUGCGAUGAUGU,-3.39
18,UUUCCAUAGGUGAUGAGUCAC,-0.48
19,UUUGUGACCUGGUCCACUAACC,-2.85
20,UUUGUUCGUUCGGCUCGCGUGA,-4.05
21,UUUUGCACCUUUUGGAGUGAA,-3.02
